According to patent US20070244179A1, “Dihydro[1,4]dioxino[2,3-e]indazole derivatives as 5-hydroxytryptamine-6 ligands” (Wyeth, priority 2006, published 2007):
Where a name gives a salt, the structure may show the parent alone.

target: human cloned 5-HT6 receptors (Homo sapiens, UniProt P50406); assay: Evaluation of 5-HT6 binding affinity ([3H]-LSD displacement, membranes of Hela cells); details: not given
Sequence (P50406 whole entry): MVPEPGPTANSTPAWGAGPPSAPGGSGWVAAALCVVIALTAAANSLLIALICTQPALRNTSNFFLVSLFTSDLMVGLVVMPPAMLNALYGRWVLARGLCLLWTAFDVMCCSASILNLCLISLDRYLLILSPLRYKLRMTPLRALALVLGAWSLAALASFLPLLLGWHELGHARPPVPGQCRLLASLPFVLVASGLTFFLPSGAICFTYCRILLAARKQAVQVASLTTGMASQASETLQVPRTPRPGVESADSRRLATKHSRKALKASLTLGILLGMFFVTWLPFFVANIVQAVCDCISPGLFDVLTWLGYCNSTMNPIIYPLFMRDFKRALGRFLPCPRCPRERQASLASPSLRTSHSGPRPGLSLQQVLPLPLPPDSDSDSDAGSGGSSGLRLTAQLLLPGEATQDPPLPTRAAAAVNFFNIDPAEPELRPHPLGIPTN

Row | Ki | Compound
1 | 31 nM | O=S(=O)(c1cccc2ccccc12)c1n[nH]c2ccc3c(c12)O[C@@H](CN1CCCC1)CO3 [Example 10, (2S)-9-(1-naphthylsulfonyl)-2-(pyrrolidin-1-ylmethyl)-2,3-dihydro-7H-[1,4]dioxino-[2,3-e]indazole]
2 | 54.5 nM | CNC[C@@H]1COc2ccc3[nH]nc(S(=O)(=O)c4cccc5ccccc45)c3c2O1 [Example 12, N-methyl-1-[(2R)-9-(1-naphthylsulfonyl)-2,3-dihydro-7H-[1,4]dioxino[2,3-e]indazol-2-yl]methanamine]
3 | 36.5 nM | O=S(=O)(c1cccc2ccccc12)c1n[nH]c2ccc3c(c12)O[C@H](CN1CCCCC1)CO3 [Example 17, (2R)-9-(1-naphthylsulfonyl)-2-(piperidin-1-ylmeyhyl)-2,3-dihydro-7H [1,4]dioxino-[2,3-e]indazole]
4 | 39.5 nM | O=S(=O)(c1cccc2ccccc12)c1n[nH]c2ccc3c(c12)O[C@H](CN1CCCC1)CO3 [Example 16, (2R)-9-(1-naphthylsulfonyl)-2-(pyrrolidin-1-ylmeyhyl)-2,3-dihydro-7H-[1,4]dioxino-[2,3-e]indazole]
5 | 44.5 nM | CNC[C@H]1COc2ccc3[nH]nc(S(=O)(=O)c4cccc5ccccc45)c3c2O1 [Example 6, N-Methyl-1-[(2S)-9-(1-naphthylsulfonyl)-2,3-dihydro-7H-[1,4]dioxino [2,3-e]indazol-2-yl]methanamine Hydrochloride]
6 | 61.5 nM | CN(C)C[C@H]1COc2ccc3[nH]nc(S(=O)(=O)c4cccc5ccccc45)c3c2O1 [Example 8, N,N-dimethyl-1-[(2S)-9-(1-naphthylsulfonyl)-2,3-dihydro-7H-[1,4]dioxino[2,3-e]-indazol-2-yl]methanamine]
7 | 79 nM | O=S(=O)(c1cccc2ccccc12)c1n[nH]c2ccc3c(c12)O[C@@H](CN1CCCCC1)CO3 [Example 11, (2S)-9-(1-naphthylsulfonyl)-2-(piperidin-1-ylmethyl)-2,3-dihydro-7H-[1,4]dioxino-[2,3-e]indazole]

Further lines, the compound ahead of its results:

Row | Compound | Ki
8 | CCN(CC)C[C@H]1COc2ccc3[nH]nc(S(=O)(=O)c4cccc5ccccc45)c3c2O1 [Example 9, N-ethyl-N-{[(2S)-9-(1-naphthylsulfonyl)-2,3-dihydro-7H-[1,4]dioxino[2,3-e]indazol-2-yl]methyl}ethanamine] | 13.5 nM
9 | CCN(CC)C[C@@H]1COc2ccc3[nH]nc(S(=O)(=O)c4cccc5ccccc45)c3c2O1 [Example 14, N-ethyl-N-{[(2R)-9-(1-naphthylsulfonyl)-2,3-dihydro-7H-[1,4]dioxino[2,3-e]indazol-2yl]-methyl}ethanamine] | 42 nM
10 | CCNC[C@@H]1COc2ccc3[nH]nc(S(=O)(=O)c4cccc5ccccc45)c3c2O1 [Example 15, N-{[(2R)-9-(1-naphthylsulfonyl)-2,3-dihydro-7H-[1,4]dioxino[2,3-e]indazol-2yl]methyl}-ethanamine] | 32.5 nM
11 | CN(C)C[C@@H]1COc2ccc3[nH]nc(S(=O)(=O)c4cccc5ccccc45)c3c2O1 [Example 13, N,N-dimethyl-1-[(2R)-9-(1-naphthylsulfonyl)-2,3-dihydro-7H-[1,4]dioxino[2,3-e]-indazol-2-yl]methanamine] | 31 nM
12 | CCNC[C@H]1COc2ccc3[nH]nc(S(=O)(=O)c4cccc5ccccc45)c3c2O1 [Example 7, N-{[(2S)-9-(1-naphthylsulfonyl)-2,3-dihydro-7H-[1,4]dioxino[2,3-e]indazol-2-yl]-methyl}ethanamine] | 84 nM

same assay, conditions: read-out: 5-HT6 Binding Ki; [3H]-LSD 3.0 nM, Hela cell membranes expressing human cloned 5-HT6 receptors, 120 minutes at room temperature

Row | Compound | Ki
13 | CCCCNC[C@@H]1COc2ccc3[nH]nc(S(=O)(=O)c4cccc5ccccc45)c3c2O1 [Example 18] | 30 nM

system: not given; assay: not given; details: not given

Row | melting point | Compound
14 | 187 to 189 °C | O=S(=O)(c1cccc2ccccc12)c1n[nH]c2ccc3c(c12)O[C@H](CN1CCCCC1)CO3 (as salt: hydrochloride) [Example 17, (2R)-9-(1-naphthylsulfonyl)-2-(piperidin-1-ylmeyhyl)-2,3-dihydro-7H [1,4]dioxino-[2,3-e]indazole]
15 | > 200 °C | CN(C)C[C@@H]1COc2ccc3[nH]nc(S(=O)(=O)c4cccc5ccccc45)c3c2O1 (as salt: hydrochloride) [Example 13, N,N-dimethyl-1-[(2R)-9-(1-naphthylsulfonyl)-2,3-dihydro-7H-[1,4]dioxino[2,3-e]-indazol-2-yl]methanamine]
16 | 163.9 to 165.2 °C | O=S(=O)(c1cccc2ccccc12)c1n[nH]c2ccc3c(c12)O[C@@H](CN1CCCCC1)CO3 (as salt: hydrochloride) [Example 11, (2S)-9-(1-naphthylsulfonyl)-2-(piperidin-1-ylmethyl)-2,3-dihydro-7H-[1,4]dioxino-[2,3-e]indazole]
17 | > 200 °C | CNC[C@@H]1COc2ccc3[nH]nc(S(=O)(=O)c4cccc5ccccc45)c3c2O1 (as salt: hydrochloride) [Example 12, N-methyl-1-[(2R)-9-(1-naphthylsulfonyl)-2,3-dihydro-7H-[1,4]dioxino[2,3-e]indazol-2-yl]methanamine]
18 | 181.3 to 183.3 °C | CNC[C@H]1COc2ccc3[nH]nc(S(=O)(=O)c4cccc5ccccc45)c3c2O1 (as salt: hydrochloride) [Example 6, N-Methyl-1-[(2S)-9-(1-naphthylsulfonyl)-2,3-dihydro-7H-[1,4]dioxino [2,3-e]indazol-2-yl]methanamine Hydrochloride]
19 | 178.1 to 181.3 °C | CN(C)C[C@H]1COc2ccc3[nH]nc(S(=O)(=O)c4cccc5ccccc45)c3c2O1 (as salt: hydrochloride) [Example 8, N,N-dimethyl-1-[(2S)-9-(1-naphthylsulfonyl)-2,3-dihydro-7H-[1,4]dioxino[2,3-e]-indazol-2-yl]methanamine]
20 | 182.6 to 184.3 °C | O=S(=O)(c1cccc2ccccc12)c1n[nH]c2ccc3c(c12)O[C@@H](CN1CCCC1)CO3 (as salt: hydrochloride) [Example 10, (2S)-9-(1-naphthylsulfonyl)-2-(pyrrolidin-1-ylmethyl)-2,3-dihydro-7H-[1,4]dioxino-[2,3-e]indazole]
21 | 184 to 186 °C | O=S(=O)(c1cccc2ccccc12)c1n[nH]c2ccc3c(c12)O[C@H](CN1CCCC1)CO3 (as salt: hydrochloride) [Example 16, (2R)-9-(1-naphthylsulfonyl)-2-(pyrrolidin-1-ylmeyhyl)-2,3-dihydro-7H-[1,4]dioxino-[2,3-e]indazole]

More lines, now with the values behind:

Row | Compound | melting point
22 | CCNC[C@@H]1COc2ccc3[nH]nc(S(=O)(=O)c4cccc5ccccc45)c3c2O1 (as salt: hydrochloride) [Example 15, N-{[(2R)-9-(1-naphthylsulfonyl)-2,3-dihydro-7H-[1,4]dioxino[2,3-e]indazol-2yl]methyl}-ethanamine] | 182 to 184 °C
23 | CCNC[C@H]1COc2ccc3[nH]nc(S(=O)(=O)c4cccc5ccccc45)c3c2O1 (as salt: hydrochloride) [Example 7, N-{[(2S)-9-(1-naphthylsulfonyl)-2,3-dihydro-7H-[1,4]dioxino[2,3-e]indazol-2-yl]-methyl}ethanamine] | 178.9 to 180.1 °C
24 | CCN(CC)C[C@H]1COc2ccc3[nH]nc(S(=O)(=O)c4cccc5ccccc45)c3c2O1 (as salt: hydrochloride) [Example 9, N-ethyl-N-{[(2S)-9-(1-naphthylsulfonyl)-2,3-dihydro-7H-[1,4]dioxino[2,3-e]indazol-2-yl]methyl}ethanamine] | 175.6 to 177.2 °C
25 | CCN(CC)C[C@@H]1COc2ccc3[nH]nc(S(=O)(=O)c4cccc5ccccc45)c3c2O1 (as salt: hydrochloride) [Example 14, N-ethyl-N-{[(2R)-9-(1-naphthylsulfonyl)-2,3-dihydro-7H-[1,4]dioxino[2,3-e]indazol-2yl]-methyl}ethanamine] | > 200 °C
